{
  "source": "patent US8546076B2",
  "about": "“Mutational profile in HIV-1 GAG cleavage site correlated with phenotypic drug resistance” (Tibotec Pharmaceuticals Ltd., priority 2007, dated 2013)",
  "test_system": "HIV-1",
  "conditions": "for Change versus baseline in log10 viral load (NC = F, non-VF censored), Mean (SE) / Virologic response rate (TLOVR, non-VF censored) defined as a decrease ≧1.0 log10 in plasma viral load versus baseline / Virologic response rate (TLOVR, non-VF censored) defined as a viral load <50 HIV-1 RNA copies/mL / mean changes versus baseline in viral load (size of decrease): Week 24; for mean changes versus baseline in viral load (size of decrease): E428G and/or R452S at baseline",
  "protocol": "Virologic response was defined as viral load ≦50 copies/mL at week 24.\nGAG genotypic analysis was performed on virus isolates from subjects of pooled trials.\nVirological failures were defined using the TLOVR non-virologic failure (VF)-censored algorithm in which the responses at time points after discontinuation are not imputed (i.e. left missing) for patients who drop for reasons other than virologic failures. Using this imputation, patients that drop out for reasons other than viro logic failure are not automatically considered as rebounders or non-responders.\nGenotypic analyses were performed by automated population-based sequencing. Sequence data were aligned to the wildtype HIV-1/HXB2CG reference and reported as amino acid changes along GAG and PR. Genotypic mixtures (a combination of different amino acids at 1 position) were reported. Amino acids were presented with their one letter code. Mutations in the 5 PR cleavage sites in the GAG region, encompassing the amino acids 128-137 (p17/p24), 359-368 (p24/p2), 373-382 (p2/p7), 428-437 (p7/p1), and 444-453 (p1/p6), were reported.\nVirologic response was defined using the TLOVR non-VF censored algorithm eliminating patients who had no chance to respond (discontinuation before Week 16). Several endpoints to assess virologic response, e.g. proportion of responders with confirmed 1.0 log10 decrease in viral load versus baseline, change in viral load from baseline (NC=F), and proportion of responders with viral load <50 or <400 HIV-1 RNA copies/mL were evaluated.\nVirologic response was defined using the TLOVR, non-VF censored algorithm eliminating patients who had no chance to respond (discontinuation before Week 16), resulting in 445 subjects included in the analysis. To assess outcome, several endpoints including the primary endpoint (proportion of responders with confirmed 1.0 log10 decrease in viral load at Week 24), change in viral load from baseline at Week 24 and proportion of responders with viral load <50 HIV-1 RNA copies/mL at Week 24 were evaluated.\nOnly mutations present at baseline in 10 subjects of the no/non-naïve ENF group (N=327) were taken into consideration.",
  "key": {"[1]": {"conditions": "E428G (p7/p1) at baseline, All subjects"}, "[2]": {"conditions": "E428G (p7/p1) at baseline, naïve ENF"}, "[3]": {"conditions": "R452S (p1/p6) at baseline, All subjects"}, "[4]": {"conditions": "R452S (p1/p6) at baseline, naïve ENF"}},
  "note": "Values joined by “and” are separate entries in the source; they are usually repeats but may differ in a detail not shown here. Equal entries are not always repeated. Where two headings read alike, the source gives them in different places.",
  "data": [
    {"substance": "darunavir/ritonavir [DRV/rtv]", "values": [
      {"measurement": "Change versus baseline in log10 viral load (NC = F, non-VF censored), Mean (SE)", "setting": "[1]", "result": "−1.07 (0.298) log10 HIV-1 RNA copies/mL"},
      {"measurement": "Virologic response rate (TLOVR, non-VF censored) defined as a decrease ≧1.0 log10 in plasma viral load versus baseline", "setting": "[1]", "result": "9 (47.4) %"},
      {"measurement": "Virologic response rate (TLOVR, non-VF censored) defined as a viral load <50 HIV-1 RNA copies/mL", "setting": "[1]", "result": "3 (15.8) %"},
      {"measurement": "Change versus baseline in log10 viral load (NC = F, non-VF censored), Mean (SE)", "setting": "[2]", "result": "−1.72 (0.763) log10 HIV-1 RNA copies/mL"},
      {"measurement": "Virologic response rate (TLOVR, non-VF censored) defined as a decrease ≧1.0 log10 in plasma viral load versus baseline", "setting": "[2]", "result": "3 (75.0) %"},
      {"measurement": "Virologic response rate (TLOVR, non-VF censored) defined as a viral load <50 HIV-1 RNA copies/mL", "setting": "[2]", "result": "1 (25.0) %"},
      {"measurement": "Change versus baseline in log10 viral load (NC = F, non-VF censored), Mean (SE)", "setting": "E428G (p7/p1) at baseline, no/non-naïve ENF", "result": "−0.89 (0.318) log10 HIV-1 RNA copies/mL"},
      {"measurement": "mean changes versus baseline in viral load (size of decrease)", "setting": "no/non-naïve ENF", "result": "< 1.0 log10 and > 0.5 log10"},
      {"measurement": "mean changes versus baseline in viral load (size of decrease)", "setting": "other subgroups (All, naïve ENF)", "result": "> 1.0", "unit": "log10"},
      {"measurement": "Virologic response rate (TLOVR, non-VF censored) defined as a viral load <50 HIV-1 RNA copies/mL", "setting": "L449P (p1/p6) at baseline, All subjects", "result": "12 (36.4) %"},
      {"measurement": "Virologic response rate (TLOVR, non-VF censored) defined as a viral load <50 HIV-1 RNA copies/mL", "setting": "L449P (p1/p6) at baseline, naïve ENF", "result": "6 (50.0) %"},
      {"measurement": "Change versus baseline in log10 viral load (NC = F, non-VF censored), Mean (SE)", "setting": "Overall, All subjects", "result": "−1.84 (0.061) log10 HIV-1 RNA copies/mL"},
      {"measurement": "Virologic response rate (TLOVR, non-VF censored) defined as a decrease ≧1.0 log10 in plasma viral load versus baseline", "setting": "Overall, All subjects", "result": "315 (70.8) %"},
      {"measurement": "Virologic response rate (TLOVR, non-VF censored) defined as a viral load <50 HIV-1 RNA copies/mL", "setting": "Overall, All subjects", "result": "207 (46.5) %"},
      {"measurement": "Change versus baseline in log10 viral load (NC = F, non-VF censored), Mean (SE)", "setting": "Overall, naïve ENF", "result": "−2.33 (0.109) log10 HIV-1 RNA copies/mL"},
      {"measurement": "Virologic response rate (TLOVR, non-VF censored) defined as a decrease ≧1.0 log10 in plasma viral load versus baseline", "setting": "Overall, naïve ENF", "result": "102 (86.4) %"},
      {"measurement": "Virologic response rate (TLOVR, non-VF censored) defined as a viral load <50 HIV-1 RNA copies/mL", "setting": "Overall, naïve ENF", "result": "66 (55.9) %"},
      {"measurement": "Change versus baseline in log10 viral load (NC = F, non-VF censored), Mean (SE)", "setting": "Overall, no/non-naïve ENF", "result": "−1.67 (0.071) log10 HIV-1 RNA copies/mL"},
      {"measurement": "Change versus baseline in log10 viral load (NC = F, non-VF censored), Mean (SE)", "setting": "[3]", "result": "−1.12 (0.293) log10 HIV-1 RNA copies/mL"},
      {"measurement": "Virologic response rate (TLOVR, non-VF censored) defined as a decrease ≧1.0 log10 in plasma viral load versus baseline", "setting": "[3]", "result": "12 (48.0) %"},
      {"measurement": "Virologic response rate (TLOVR, non-VF censored) defined as a viral load <50 HIV-1 RNA copies/mL", "setting": "[3]", "result": "7 (28.0) %"},
      {"measurement": "Change versus baseline in log10 viral load (NC = F, non-VF censored), Mean (SE)", "setting": "[4]", "result": "−2.50 (0.276) log10 HIV-1 RNA copies/mL"},
      {"measurement": "Virologic response rate (TLOVR, non-VF censored) defined as a decrease ≧1.0 log10 in plasma viral load versus baseline", "setting": "[4]", "result": "7 (100) %"},
      {"measurement": "Virologic response rate (TLOVR, non-VF censored) defined as a viral load <50 HIV-1 RNA copies/mL", "setting": "[4]", "result": "6 (85.7) %"},
      {"measurement": "Change versus baseline in log10 viral load (NC = F, non-VF censored), Mean (SE)", "setting": "R452S (p1/p6) at baseline, no/non-naïve ENF", "result": "−0.58 (0.312) log10 HIV-1 RNA copies/mL"},
      {"measurement": "Virologic response rate (TLOVR, non-VF censored) defined as a viral load <50 HIV-1 RNA copies/mL", "setting": "S451T (p1/p6) at baseline, All subjects", "result": "4 (18.2) %"},
      {"measurement": "Virologic response rate (TLOVR, non-VF censored) defined as a viral load <50 HIV-1 RNA copies/mL", "setting": "S451T (p1/p6) at baseline, naïve ENF", "result": "1 (12.5) %"},
      {"measurement": "virologic response (viral load ≦50 copies/mL) relative to overall response", "setting": "week 24, E428G at baseline, univariate analysis, N=467", "result": "< 75 % of overall response"}
    ]}
  ]
}
